Reference: paper PMC6864445, “New Molecular Insights into the Inhibition of Dipeptidyl Peptidase-4 by Natural Cyclic Peptide Oxytocin” (Molecules, 2019)

Legend:
[1] = molecular target: T1, human dipeptidyl peptidase-4 (DPP4) (Homo sapiens, UniProt P27487); experiment: DPP4 inhibitor screening kit fluorescence assay (H-Gly-Pro-AMC cleavage); assay type: biochemical; settings: n = 3
T1 construct: purchased Sigma Aldrich
Experimental: Oxytocin peptide was purchased from the company Parfarm S.A (District Federal, Mexico), and human dipeptidyl peptidase-4 inhibitor screening kit, Black-well 96 well plate for fluorescence assays were purchased from Sigma Aldrich (St. Louis, MO, USA).
The experimental studies were carried out using the human DPP4 inhibitor screening kit to validate the computational results. Briefly, the pure protein DPP4 cleaves non-fluorescence substrate H-Gly-Pro-AMC and releases fluorescence product AMC whose fluorescence emissions, λex = 360 nm and λem = 460 nm on each well, were recorded in a kinetic mode for 30 min using microplate reader Thermo Scientific Varioskan Flash Multimode Reader by Thermo Scientific. The relative percent of inhibition was calculated using Equation (1), where df/dt denotes changes in fluorescence with time. The graphs were plotted for all experiments (n = 3) using Graph Pad software. All groups were compared with p < 0.05 as statistically significant. To obtain the p-value, an ordinary one-way ANOVA unpaired t-test was applied using Graph Pad software (San Diego, CA, USA). All the data in graphs are expressed as mean ± S.D:(1) % Relative inhibition=(df/dt)DPP4 enzyme−(df/dt)(DPP4−OXT peptide)/(df/dt)DPP4 enzyme×100

[2] = tested on: DPP4; settings: cited from earlier work; for IC50: read-out: IC50 (uM), peptides as DPP4 inhibitors, Supplementary Table S1

T1 sequence (P27487 whole entry): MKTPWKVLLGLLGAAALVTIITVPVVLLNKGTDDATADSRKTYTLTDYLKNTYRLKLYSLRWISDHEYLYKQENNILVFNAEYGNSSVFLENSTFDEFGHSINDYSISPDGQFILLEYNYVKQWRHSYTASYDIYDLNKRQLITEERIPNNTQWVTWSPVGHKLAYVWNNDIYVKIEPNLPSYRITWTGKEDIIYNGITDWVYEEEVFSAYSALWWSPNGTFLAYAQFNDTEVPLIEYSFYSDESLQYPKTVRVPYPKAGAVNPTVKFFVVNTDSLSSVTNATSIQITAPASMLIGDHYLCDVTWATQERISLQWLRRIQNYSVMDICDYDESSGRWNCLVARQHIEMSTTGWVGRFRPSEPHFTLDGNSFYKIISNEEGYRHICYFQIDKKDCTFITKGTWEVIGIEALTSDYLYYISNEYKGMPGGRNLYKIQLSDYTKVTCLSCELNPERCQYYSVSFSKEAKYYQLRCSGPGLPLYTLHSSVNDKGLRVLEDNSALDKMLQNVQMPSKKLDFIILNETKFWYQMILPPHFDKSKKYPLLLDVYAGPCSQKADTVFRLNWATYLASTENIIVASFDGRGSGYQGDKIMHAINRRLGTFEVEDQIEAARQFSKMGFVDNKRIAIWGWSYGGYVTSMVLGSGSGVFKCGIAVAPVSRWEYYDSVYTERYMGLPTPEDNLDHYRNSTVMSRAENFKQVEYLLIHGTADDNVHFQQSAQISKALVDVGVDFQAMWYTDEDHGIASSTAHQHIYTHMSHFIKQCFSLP

Row | Compound | IC50 [2] [µM] | also measured
1 | CC[C@H](C)[C@@H]1NC(=O)[C@H](Cc2ccc(O)cc2)NC(=O)[C@@H](N)CSSC[C@@H](C(=O)N2CCC[C@H]2C(=O)N[C@@H](CC(C)C)C(=O)NCC(N)=O)NC(=O)[C@H](CC(N)=O)NC(=O)[C@H](CCC(N)=O)NC1=O [oxytocin] | – | inhibition at 0.002 µM ([1]; 2 nM oxytocin, mean, read-out: relative percent inhibition of DPP4): 6.3%; inhibition at 0.019 µM ([1]; 19 nM oxytocin, mean, read-out: relative percent inhibition of DPP4): 44.5%; inhibition at 0.28037 µM ([1]; 280.37 nM oxytocin, mean, read-out: relative percent inhibition of DPP4): 61.6%; inhibition at 0.85047 µM ([1]; 850.47 nM oxytocin, mean, read-out: relative percent inhibition of DPP4): 75.4%; inhibition at 1.6 µM ([1]; 1600 nM oxytocin, mean, read-out: relative percent inhibition of DPP4): 81.2%; IC50 ([1]; fluorescence assay, substrate H-Gly-Pro-AMC, λex 360 nm / λem 460 nm, kinetic mode 30 min, dose-response curve in Figure S1, read-out: inhibitory concentration IC50 of DPP4): 0.111 µM
2 | IPIY | 35.2 | –
3 | PGPIHDS | 1000 | –
4 | IPIQY | 26.7 | –
5 | GPAG | 41.1 | –
6 | LPLPL | 358 | –
7 | LPYPY | 90.8 | –
8 | GPGA | 41.9 | –
9 | FPGPIPD | 260 | –
10 | Diprotin A | 2.9 | IC50 of DPP4 ([2]; peptide isolated from culture of Bacillus cereus): 2900 µg/mL
11 | LPQNIPP | 160 | –
12 | IPAVF | 44.7 | –
13 | YPYY | 208 | –
